# Measured values as given in ChEMBL document CHEMBL4138232, “O2-(2,4-dinitrophenyl)diazeniumdiolates derivatives: Design, synthesis, cytotoxic evaluation and reversing MDR in MCF-7/ADR cells” (Eur J Med Chem, 2018).
# Tested on: HCT-116
# Assay: Cytotoxicity against human HCT116 cells overexpressing GST-Pi assessed as inhibition of cell viability at 10 uM after 48 hrs by MTT assay relative to control
# Type: functional
# Details: HCT-116, 48 h
row,SMILES,inhibition at 10 µM
1,COc1ccc(C2CC(c3cccc(Oc4cc(O/N=[N+](\[O-])N5CCCCC5)c([N+](=O)[O-])cc4[N+](=O)[O-])c3)=NN2C(C)=O)cc1 (stereo unspecified),80.4%
2,COc1cc(C2CC(c3cccc(Oc4cc(O/N=[N+](\[O-])N5CCCCC5)c([N+](=O)[O-])cc4[N+](=O)[O-])c3)=NN2C(C)=O)cc(OC)c1OC (stereo unspecified),80.8%

# Tested on: MDA-MB-231
# Assay: Antiproliferative activity against human MDA-MB-231 cells after 48 hrs by MTT assay relative to control
# Type: functional, cell-based
# Details: MDA-MB-231, 48 h
row,SMILES,IC50
1,COc1ccc(C2CC(c3cccc(Oc4cc(O/N=[N+](\[O-])N5CCCCC5)c([N+](=O)[O-])cc4[N+](=O)[O-])c3)=NN2C(C)=O)cc1 (stereo unspecified),5.68 µM
2,COc1cc(C2CC(c3cccc(Oc4cc(O/N=[N+](\[O-])N5CCCCC5)c([N+](=O)[O-])cc4[N+](=O)[O-])c3)=NN2C(C)=O)cc(OC)c1OC (stereo unspecified),0.94 µM

# Tested on: HCT-116
# Assay: Antiproliferative activity against human HCT116 cells after 48 hrs by MTT assay relative to control
# Type: functional, cell-based
# Details: HCT-116, 48 h
row,SMILES,IC50
1,COc1ccc(C2CC(c3cccc(Oc4cc(O/N=[N+](\[O-])N5CCCCC5)c([N+](=O)[O-])cc4[N+](=O)[O-])c3)=NN2C(C)=O)cc1 (stereo unspecified),4140 nM
2,COc1cc(C2CC(c3cccc(Oc4cc(O/N=[N+](\[O-])N5CCCCC5)c([N+](=O)[O-])cc4[N+](=O)[O-])c3)=NN2C(C)=O)cc(OC)c1OC (stereo unspecified),1060 nM

# Tested on: A549
# Assay: Antiproliferative activity against human A549 cells after 48 hrs by MTT assay relative to control
# Type: functional, cell-based
# Details: A549, 48 h
row,SMILES,IC50
1,COc1ccc(C2CC(c3cccc(Oc4cc(O/N=[N+](\[O-])N5CCCCC5)c([N+](=O)[O-])cc4[N+](=O)[O-])c3)=NN2C(C)=O)cc1 (stereo unspecified),4700 nM
2,COc1cc(C2CC(c3cccc(Oc4cc(O/N=[N+](\[O-])N5CCCCC5)c([N+](=O)[O-])cc4[N+](=O)[O-])c3)=NN2C(C)=O)cc(OC)c1OC (stereo unspecified),1150 nM

# Tested on: U2OS
# Assay: Antiproliferative activity against human U2OS cells after 48 hrs by MTT assay relative to control
# Type: functional, cell-based
# Details: not given
row,SMILES,IC50
1,COc1ccc(C2CC(c3cccc(Oc4cc(O/N=[N+](\[O-])N5CCCCC5)c([N+](=O)[O-])cc4[N+](=O)[O-])c3)=NN2C(C)=O)cc1 (stereo unspecified),7.49 µM
2,COc1cc(C2CC(c3cccc(Oc4cc(O/N=[N+](\[O-])N5CCCCC5)c([N+](=O)[O-])cc4[N+](=O)[O-])c3)=NN2C(C)=O)cc(OC)c1OC (stereo unspecified),7.64 µM

# Tested on: MCF-10A
# Assay: Antiproliferative activity against human MCF10A cells after 48 hrs by MTT assay relative to control
# Type: cell-based
# Details: not given
row,SMILES,IC50
1,COc1ccc(C2CC(c3cccc(Oc4cc(O/N=[N+](\[O-])N5CCCCC5)c([N+](=O)[O-])cc4[N+](=O)[O-])c3)=NN2C(C)=O)cc1 (stereo unspecified),46.9 µM
2,COc1cc(C2CC(c3cccc(Oc4cc(O/N=[N+](\[O-])N5CCCCC5)c([N+](=O)[O-])cc4[N+](=O)[O-])c3)=NN2C(C)=O)cc(OC)c1OC (stereo unspecified),10.5 µM

# Tested on: not listed separately
# Assay: Selectivity ratio of IC50 for human MCF10A cells to IC50 for human MDA-MB-231 cells
# Type: toxicity
# Details: MCF10A cells versus MDA-MB-231 cells, read-out: Ratio IC50
row,SMILES,selectivity ratio
1,COc1ccc(C2CC(c3cccc(Oc4cc(O/N=[N+](\[O-])N5CCCCC5)c([N+](=O)[O-])cc4[N+](=O)[O-])c3)=NN2C(C)=O)cc1 (stereo unspecified),8.2
2,COc1cc(C2CC(c3cccc(Oc4cc(O/N=[N+](\[O-])N5CCCCC5)c([N+](=O)[O-])cc4[N+](=O)[O-])c3)=NN2C(C)=O)cc(OC)c1OC (stereo unspecified),11.2

# Tested on: not listed separately
# Assay: Selectivity ratio of IC50 for human HCT116 cells to IC50 for human MDA-MB-231 cells
# Type: functional
# Details: not given
row,SMILES,Ratio IC50
1,COc1ccc(C2CC(c3cccc(Oc4cc(O/N=[N+](\[O-])N5CCCCC5)c([N+](=O)[O-])cc4[N+](=O)[O-])c3)=NN2C(C)=O)cc1 (stereo unspecified),0.7
2,COc1cc(C2CC(c3cccc(Oc4cc(O/N=[N+](\[O-])N5CCCCC5)c([N+](=O)[O-])cc4[N+](=O)[O-])c3)=NN2C(C)=O)cc(OC)c1OC (stereo unspecified),1.1

# Tested on: not listed separately
# Assay: Selectivity ratio of IC50 for human A549 cells to IC50 for human MDA-MB-231 cells
# Type: functional
# Details: not given
row,SMILES,Ratio IC50
1,COc1ccc(C2CC(c3cccc(Oc4cc(O/N=[N+](\[O-])N5CCCCC5)c([N+](=O)[O-])cc4[N+](=O)[O-])c3)=NN2C(C)=O)cc1 (stereo unspecified),1.5
2,COc1cc(C2CC(c3cccc(Oc4cc(O/N=[N+](\[O-])N5CCCCC5)c([N+](=O)[O-])cc4[N+](=O)[O-])c3)=NN2C(C)=O)cc(OC)c1OC (stereo unspecified),1.2

# Tested on: not listed separately
# Assay: Selectivity ratio of IC50 for human U2OS cells to IC50 for human MDA-MB-231 cells
# Type: functional
# Details: not given
row,SMILES,Ratio IC50
1,COc1ccc(C2CC(c3cccc(Oc4cc(O/N=[N+](\[O-])N5CCCCC5)c([N+](=O)[O-])cc4[N+](=O)[O-])c3)=NN2C(C)=O)cc1 (stereo unspecified),1.7
2,COc1cc(C2CC(c3cccc(Oc4cc(O/N=[N+](\[O-])N5CCCCC5)c([N+](=O)[O-])cc4[N+](=O)[O-])c3)=NN2C(C)=O)cc(OC)c1OC (stereo unspecified),8.1

# Tested on: HCT-116
# Assay: Growth inhibition of human HCT116 cells at 5 uM after 24 hrs by MTT assay relative to control
# Type: functional
# Details: HCT-116, 24 h, read-out: GI
row,SMILES,inhibition of growth at 5 µM
1,COc1ccc(C2CC(c3cccc(Oc4cc(O/N=[N+](\[O-])N5CCCCC5)c([N+](=O)[O-])cc4[N+](=O)[O-])c3)=NN2C(C)=O)cc1 (stereo unspecified),67.9%
2,COc1cc(C2CC(c3cccc(Oc4cc(O/N=[N+](\[O-])N5CCCCC5)c([N+](=O)[O-])cc4[N+](=O)[O-])c3)=NN2C(C)=O)cc(OC)c1OC (stereo unspecified),74.9%

# Tested on: HCT-116
# Assay: Growth inhibition of human HCT116 cells at 5 uM after 24 hrs in presence of GST-Pi inhibitor etacrynic acid by MTT assay relative to control
# Type: functional
# Details: HCT-116, 24 h, read-out: GI
row,SMILES,inhibition of growth at 5 µM
1,COc1ccc(C2CC(c3cccc(Oc4cc(O/N=[N+](\[O-])N5CCCCC5)c([N+](=O)[O-])cc4[N+](=O)[O-])c3)=NN2C(C)=O)cc1 (stereo unspecified),14.8%

# Biological target: T1, Glutathione S-transferase P (Homo sapiens, UniProt P09211)
# T1 sequence (P09211 whole entry): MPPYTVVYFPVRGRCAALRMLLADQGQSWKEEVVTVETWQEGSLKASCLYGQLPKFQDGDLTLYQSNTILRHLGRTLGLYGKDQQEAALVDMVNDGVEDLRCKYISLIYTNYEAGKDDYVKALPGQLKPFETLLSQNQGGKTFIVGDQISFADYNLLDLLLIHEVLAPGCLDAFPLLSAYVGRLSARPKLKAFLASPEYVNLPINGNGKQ
# Assay: Prodrug activation in human HCT116 cells assessed as GST-Pi-mediated NO release at 5 uM after 24 hrs by nitrate reductase assay
# Type: cell-based
# Details: not given
row,SMILES,Drug metabolism
1,COc1cc(C2CC(c3cccc(Oc4cc(O/N=[N+](\[O-])N5CCCCC5)c([N+](=O)[O-])cc4[N+](=O)[O-])c3)=NN2C(C)=O)cc(OC)c1OC (stereo unspecified),Metabolite_Detected

# Species: Homo sapiens
# Assay: Inhibition of MDR in human MCF7/ADR cells assessed as potentiation of adriamycin-induced antiproliferative activity by measuring fold reduction in adriamycin IC50 at 10 uM after 48 hrs by MTT assay
# Type: cell-based
# Details: not given
row,SMILES,fold change (FC)
1,COc1ccc(C2CC(c3cccc(Oc4cc(O/N=[N+](\[O-])N5CCCCC5)c([N+](=O)[O-])cc4[N+](=O)[O-])c3)=NN2C(C)=O)cc1 (stereo unspecified),61.9
2,COc1cc(C2CC(c3cccc(Oc4cc(O/N=[N+](\[O-])N5CCCCC5)c([N+](=O)[O-])cc4[N+](=O)[O-])c3)=NN2C(C)=O)cc(OC)c1OC (stereo unspecified),75.3

# Biological target: T1, Glutathione S-transferase P
# Assay: Prodrug activation in human HCT116 cells assessed as GST-Pi-mediated NO release at 5 uM after 24 hrs in presence of NO scavenger carboxy-PTIO by nitrate reductase assay
# Type: cell-based
# Details: not given
row,SMILES,Drug metabolism
1,COc1ccc(C2CC(c3cccc(Oc4cc(O/N=[N+](\[O-])N5CCCCC5)c([N+](=O)[O-])cc4[N+](=O)[O-])c3)=NN2C(C)=O)cc1 (stereo unspecified),Metabolite_Notdetected
2,COc1cc(C2CC(c3cccc(Oc4cc(O/N=[N+](\[O-])N5CCCCC5)c([N+](=O)[O-])cc4[N+](=O)[O-])c3)=NN2C(C)=O)cc(OC)c1OC (stereo unspecified),Metabolite_Notdetected

# Biological target: T1, Glutathione S-transferase P
# Assay: Prodrug activation in human HCT116 cells assessed as GST-Pi-mediated NO release at 5 uM after 24 hrs in presence of GST-Pi inhibitor etacrynic acid by nitrate reductase assay
# Type: cell-based
# Details: not given
row,SMILES,Drug metabolism
1,COc1ccc(C2CC(c3cccc(Oc4cc(O/N=[N+](\[O-])N5CCCCC5)c([N+](=O)[O-])cc4[N+](=O)[O-])c3)=NN2C(C)=O)cc1 (stereo unspecified),Metabolite_Notdetected
2,COc1cc(C2CC(c3cccc(Oc4cc(O/N=[N+](\[O-])N5CCCCC5)c([N+](=O)[O-])cc4[N+](=O)[O-])c3)=NN2C(C)=O)cc(OC)c1OC (stereo unspecified),Metabolite_Notdetected

# Tested on: HCT-116
# Assay: Growth inhibition of human HCT116 cells at 5 uM after 24 hrs in presence of NO scavenger carboxy-PTIO by MTT assay relative to control
# Type: functional
# Details: HCT-116, 24 h, read-out: GI
row,SMILES,inhibition of growth at 5 µM
1,COc1cc(C2CC(c3cccc(Oc4cc(O/N=[N+](\[O-])N5CCCCC5)c([N+](=O)[O-])cc4[N+](=O)[O-])c3)=NN2C(C)=O)cc(OC)c1OC (stereo unspecified),7.1%

# Tested on: not listed separately
# Assay: Glutathione reactivity in pH 7.4 PBS buffer assessed as parent compound remaining at 0.1 mM after 1 hr in presence of 2 mM GSH by HPLC analysis
# Type: physicochemical
# Details: PBS buffer with 2 mM glutathione (GSH), read-out: Stability
row,SMILES,"remaining at 1 h, 100 µM"
1,COc1cc(C2CC(c3cccc(Oc4cc(O/N=[N+](\[O-])N5CCCCC5)c([N+](=O)[O-])cc4[N+](=O)[O-])c3)=NN2C(C)=O)cc(OC)c1OC (stereo unspecified),80%

# Tested on: not listed separately
# Assay: Cytotoxicity against ADR-sensitive human MCF7 cells assessed as inhibition of cell viability at 10 uM after 48 hrs by MTT assay relative to control
# Type: cell-based
# Details: read-out: INH
row,SMILES,"cytotoxicity at 48 h, 10 µM"
1,COc1ccc(C2CC(c3cccc(Oc4cc(O/N=[N+](\[O-])N5CCCCC5)c([N+](=O)[O-])cc4[N+](=O)[O-])c3)=NN2C(C)=O)cc1 (stereo unspecified),15.1%
2,COc1cc(C2CC(c3cccc(Oc4cc(O/N=[N+](\[O-])N5CCCCC5)c([N+](=O)[O-])cc4[N+](=O)[O-])c3)=NN2C(C)=O)cc(OC)c1OC (stereo unspecified),26.4%

# Tested on: MCF7
# Assay: Cytotoxicity against ADR-sensitive human MCF7 cells assessed as inhibition of cell viability after 48 hrs by MTT assay
# Type: cell-based
# Details: MCF7, 48 h
row,SMILES,IC50
1,COc1ccc(C2CC(c3cccc(Oc4cc(O/N=[N+](\[O-])N5CCCCC5)c([N+](=O)[O-])cc4[N+](=O)[O-])c3)=NN2C(C)=O)cc1 (stereo unspecified),27.6 µM
2,COc1cc(C2CC(c3cccc(Oc4cc(O/N=[N+](\[O-])N5CCCCC5)c([N+](=O)[O-])cc4[N+](=O)[O-])c3)=NN2C(C)=O)cc(OC)c1OC (stereo unspecified),17.7 µM
